Here are results for six molecules from patent US7763619B2, “Compounds with 5-HT1A activity useful for treating disorders of the outer retina” (Alcon, Inc., priority 2000, dated 2010).

Holding throughout (type): in vivo
The test system of series [1] is photo-oxidative induced retinopathy. As to the kind of experiment: Rat photo-oxidative induced retinopathy model: retinal morphology. The procedure: (§1) Neuroprotective Effects in the Rat Photo-Oxidative Induced Retinopathy Model
(§2) Induction of Photochemical Lesion. Photochemical lesions were induced in dark adapted rats (24 hour) by exposure to (220 fc) blue light (half-amplitude bandpass=435-475 nm) for 6 hours. Animals were allowed to recover for 5 days in darkness prior to electrodiagnostic evaluation of retinal function. Rats were single housed in clear polycarbonate cages during this light exposure.
Assessment of Retinal Morphology. Ocular tissues were obtained from control and drug or vehicle dosed rats and fixed by immersion into a mixture of 2% paraformaldehyde and 2% glutaraldehyde. Fixed eyeballs were dehydrated in an ascending ethanol series, embedded in JB-4 plastic resin, and 1 to 1.5-micron thick sections were analyzed using a quantitative computer image analysis system attached to the microscope. Retinal layer thickness (retinal pigment epithelium, RPE; outer nuclear layer thickness, ONL; inner nuclear layer thickness, INL; and length of photoreceptor inner and outer segments, IS+OS) was measured.
(§3) Subjects and Dosing. Male Sprague Dawley rats were randomly assigned to drug and vehicle experimental groups. Control rats were housed in their home cage under normal cyclic light exposure. All rats were dosed 48, 24 and 0 hours prior to a 6-hour blue-light exposure. Dosing was as follows:
(§4) Five rats were used as controls. Retinal protection was assessed by analyzing the ERG response and measuring changes in retinal morphology.
2.) Buspirone: For DNA quantitation, six rats per treatment group were dosed IP with vehicle or buspirone (0.5 and 1 mg/kg) prior to light exposure. Retinas from seven normal rats were used as controls. To evaluate changes in retinal morphology, rats were dosed (IP) with either vehicle (N=8) or buspirone (1.0 mg/kg [N=9]). Six rats were used as controls. Retinal protection was assessed by quantitating changes in retinal DNA and measuring changes in retinal morphology.

The test system is the same in series [2]. In words: Rat photo-oxidative induced retinopathy model: electroretinogram (ERG).
The test system is the same in series [3]. The series is described as above. The procedure: as §1
The retinal protective effect of these 5-HT1A agonists were evaluated in our photo-oxidative induced retinopathy paradigm.
as §2
Electrodiagnostic Evaluation. The electroretinogram (ERG) was recorded from anesthetized rats after a 24-hour dark-adaptation period. Rats were anesthetized by IP injection with Ketamine-HCl (75 mg/Kg) and Xylazine (6 mg/Kg). Flash ERGs recorded from a platinum-iridium wire loop electrode positioned on the cornea were elicited by viewing a ganzfeld. Electrical responses to a series of light flashes increasing in intensity were digitized to analyze temporal characteristics of the waveform and response voltage-log intensity (VlogI) relationship. Changes in the ERG a-wave are associated with photoreceptor and retinal pigment epithelium damage while damage to the inner retina is reflected in changes in the ERG b-wave.
as §3, §4
3.) SR-57746A: Rats were dosed (IP) with vehicle (N=15) or SR-57746A (0.5 mg/kg [N=5] or 1 mg/kg [N=15]). Eleven rats were used as controls. The ERG was analyzed after a 5-day recovery period to assess retinal protection.
The source holds these as a separate data set.

The test system is the same in series [4]. As to the kind of experiment: Rat photo-oxidative induced retinopathy model: retinal DNA quantitation. The procedure: as §1, §2
Assessment of DNA Changes. Albino rats were euthanized by CO2 inhalation and individual retinas were frozen in separate tubes. Each retina had been sonicated in 0.8 ml (2.0 M NaCl, 50 mM NaPO4, pH 7.4, 2 mM EDTA) to yield a uniform homogenate, and stored frozen. Aliquots (0.1 ml) of each sample were diluted 10-fold with 2.0 M NaCl, 50 mM NaPO4. pH 7.4, 2 mM EDTA containing 1.1 μg/ml bisbenzimidazole (Hoechst 33258). A standard curve was constructed using calf thymus DNA from 0 to 25 μg/ml in the same buffer. Triplicate 0.2 ml aliquots of each retina sample and standard were pipetted into a 96 well plate for fluorescence measurements in the Cytofluor II. […]
2.) Buspirone: For DNA quantitation, six rats per treatment group were dosed IP with vehicle or buspirone (0.5 and 1 mg/kg) prior to light exposure. […] Retinal protection was assessed by quantitating changes in retinal DNA and measuring changes in retinal morphology.

The subject of series [5] is light-induced functional or morphological changes. As to the kind of experiment: Light damage paradigms (comparison compound classes).
The mark [6] stands for this setting: 0.5 mg/kg SC 48, 24 and 0 h before 6-h blue light, 5-day recovery.
Setting [7] is: 1.0 mg/kg SC 48, 24 and 0 h before 6-h blue light, 5-day recovery.

Where a name gives a salt, the structure may show the parent alone.

Consider `CCCN(CCC)C1CCc2cccc(O)c2C1` (stereo not shown) [8-OH-DPAT, 8-hydroxy-2-(di-n-propylamino)tetralin], for which, in series [1] (0.5 mg/kg SC, 3-week recovery), the “Lesions versus vehicle dosed rats” value is recorded as “not significantly different than lesions measured in vehicle dosed rats”, the ONL thickness reduction worked out at 53%, the “Photoreceptor segment length reduction” value is given as 60% and the RPE thickness reduction was 34%. Also, in series [1] (1.0 mg/kg SC, 3-week recovery), the “ONL thickness compared to vehicle dosed rats” value is 2.4 fold, the “Photic lesions versus vehicle dosed rats” value is recorded as “significantly different from vehicle dosed rats”, the “Photoreceptor segment length compared to vehicle dosed rats” value was determined as 2.9 times and the “RPE thickness compared to vehicle dosed rats” value came out at 1.9 times. For the same molecule, in series [2] (setting [6]), the “Maximum a- and b-wave response amplitudes versus vehicle dosed rats” value is “not different than vehicle dosed rats”; the “Maximum a- and b-wave response amplitudes, % of control amplitudes” value is “approximately 27%”. Besides, the ERG reduction entry in series [2] (0.5 mg/kg SC, as restated with the morphometry) is recorded as “approximately 63%”. Further, in series [2] (setting [7]), the “Maximum a- and b-wave response amplitudes versus vehicle dosed rats” value is “significantly higher than responses measured in vehicle dosed rats”; the “Maximum a-wave response amplitude, % of normal” value was “approximately 53%”; the “Maximum b-wave response amplitude, % of normal” value was approximately 61%. Besides, the “ERG response amplitudes, % of normal” value in series [2] (1.0 mg/kg SC, as restated with the morphometry) was “greater than 50%”.

For the molecule `FC(F)(F)c1cccc(C2=CCN(CCc3ccc4ccccc4c3)CC2)c1` [SR-57746A, xaliproden hydrochloride], the “Maximum a- and b-wave responses, % of controls” value in series [3] (0.5 mg/kg IP, 5-day recovery) is listed as 82%. In addition, the “Maximum a- and b-wave responses, % of normal” value in series [3] (1 mg/kg IP, 5-day recovery) stood at 70%. Further, the “Protection of retinal function” value in series [3] (0.5 and 1.0 mg/kg IP, light-exposed rats) is reported as “Significant protection of retinal function”.

Regarding `O=C1CC2(CCCC2)CC(=O)N1CCCCN1CCN(c2ncccn2)CC1` [buspirone], the “Retinal DNA levels versus vehicle” value in series [4] (0.1 mg/kg IP) is “No significant differences”. Moreover, the “Retinal DNA levels versus vehicle and controls” value in series [4] (1 mg/kg IP) is reported as “significantly higher than measured in vehicle dosed rats, but not significantly different than controls”. Besides, in series [1] (1 mg/kg IP, 4-week recovery), the ONL thickness came to 28.3 μ and the “ONL thickness versus normal rats” value is on record as “no significant difference in ONL thickness”.

With `Fc1ccc(C(c2ccc(F)cc2)N2CCN(C/C=C/c3ccccc3)CC2)cc1` [flunarizine], the “Effect in preventing light-induced functional or morphological changes” value in series [5] was “moderately effective”.

On to `COCCOC(=O)C1=C(C)NC(C)=C(C(=O)OC(C)C)C1c1cccc([N+](=O)[O-])c1` (stereo not shown) [nimodipine], for which, in series [5], the “Effect in preventing light-induced functional or morphological changes” value was “no effect”.

On to `Cc1c(C)c2c(c(C)c1O)CC[C@@](C)(CCC[C@H](C)CCC[C@H](C)CCCC(C)C)O2` [α-tocopherol], for which the “Effect in preventing light-induced functional or morphological changes” value in series [5] was “ineffective”.
